{
  "source": "paper PMC11711184",
  "about": "“Structural basis of THC analog activity at the Cannabinoid 1 receptor” (Nature Communications, 2025)",
  "data": [
    {"target": "T1, CB1 (CB1-Nluc) (Homo sapiens, UniProt P21554)", "T1 construct": "gene CNR1; CB1 with C-terminal NanoLuc (CB1-Nluc), stably co-expressed in HEK293-TR cells with NES-venus-mini-Gsi (Gs-based chimera with Gi1 C-terminal residues) as BRET acceptor", "T1 sequence (P21554 whole entry)": "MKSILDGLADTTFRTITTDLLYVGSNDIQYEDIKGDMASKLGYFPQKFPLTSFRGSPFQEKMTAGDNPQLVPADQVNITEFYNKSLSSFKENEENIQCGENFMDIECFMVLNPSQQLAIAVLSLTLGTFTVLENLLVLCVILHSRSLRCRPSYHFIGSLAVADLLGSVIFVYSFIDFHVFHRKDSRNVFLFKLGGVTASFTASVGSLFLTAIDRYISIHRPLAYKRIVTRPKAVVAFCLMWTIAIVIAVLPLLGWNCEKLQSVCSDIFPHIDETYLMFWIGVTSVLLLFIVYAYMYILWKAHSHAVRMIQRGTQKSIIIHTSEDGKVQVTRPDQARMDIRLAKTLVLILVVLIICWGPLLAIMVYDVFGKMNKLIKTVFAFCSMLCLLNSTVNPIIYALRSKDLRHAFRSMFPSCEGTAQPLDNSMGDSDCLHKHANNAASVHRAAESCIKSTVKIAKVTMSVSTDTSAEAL", "experiment": "NanoBRET venus-mini-Gsi recruitment", "type": "cell-based", "units": {"EC50": "nM"}, "values": [
      {"smiles": "CC(C)(CCCCCCN=C=S)c1cc(O)c2c(c1)OC(C)(C)[C@@H]1CC[C@@H](CO)C[C@@H]21", "note": "[AM841, (6aR,9 R,10aR)-9-(hydroxymethyl)-3-(8-isothiocyanato-2-methyloctan-2-yl)-6,6-dimethyl-6a,7,8,9,10,10a-hexahydro-6H-benzo[c]chromen-1-ol]", "EC50": 3.39},
      {"smiles": "CCCCCCC(C)(C)c1cc(OC)c2c(c1)OC(C)(C)[C@@H]1CC=C(C)C[C@@H]21", "note": "[L759633]", "EC50": 417},
      {"smiles": "CCCC(C)(C)c1ccc2c(c1)OC(C)(C)[C@@H]1CC=C(C)C[C@@H]21", "note": "[JWH133, (6aR,10aR)-3-(1,1-Dimethylbutyl)-6a,7,10,10a-tetrahydro-6,6,9-trimethyl-6H-dibenzo[b,d]pyran]", "EC50": 1150},
      {"smiles": "CC1=CC[C@@H]2[C@@H](C1)c1c(O)cc(C(C)(C)CCCCCCBr)cc1OC2(C)C", "note": "[AM11542, (6aR,10aR)-3-(8-bromo-2-methyloctan-2-yl)-6,6,9-trimethyl-6a,7,10,10a-tetrahydro-6H-benzo[c]chromen-1-ol]", "EC50": 3.39},
      {"smiles": "CCCc1cc(O)c2c(c1)OC(C)(C)[C@@H]1CCC(C)=C[C@@H]21", "note": "[THCv]", "EC50": 200},
      {"smiles": "CCCCCCC(C)(C)c1cc(O)c2c(c1)OC(C)(C)[C@@H]1CC[C@@H](CO)C[C@@H]21", "note": "[HU243]", "EC50": 2.04},
      {"smiles": "CCCCCCC(C)(C)c1cc(O)c2c(c1)OC(C)(C)[C@@H]1CC=C(CO)C[C@@H]21", "note": "[HU210, (6aR)-trans-3-(1,1-Dimethylheptyl)-6a,7,10,10a-tetrahydro-1-hydroxy-6,6-dimethyl-6H-dibenzo[b,d]pyran-9-methanol]", "EC50": 2.4},
      {"smiles": "CCCCCCC(C)(C)c1cc(O)c2c(c1)OC(C)(C)C1CCC(=O)CC21", "note": "(centres unmarked) [Nabilone]", "EC50": 13.8}
    ]}
  ]
}
